This test relates to HL-60. The experiment in a line: Cytotoxicity against human HL60 cells at 10 ug/mL by MTT assay. It is filed as functional, cell-based. (Tetrazolium assays rely on reduction of a dye to a coloured formazan, in cell work by metabolically active cells.)

Structures are written as SMILES. Activity calls are given as the source filed them. No cut-off for these calls is given here.

In the case of `C[C@@H]1O[C@@H](O[C@H]2[C@H](O[C@H]3CC[C@@]4(C)[C@@H](CC[C@]5(C)[C@@H]4CC[C@@H]4[C@H]6[C@H](C(C)(C)O)CC[C@]6(C(=O)O[C@@H]6O[C@H](CO[C@@H]7O[C@H](CO)[C@@H](O[C@@H]8O[C@@H](C)[C@H](O)[C@@H](O)[C@H]8O)[C@H](O)[C@H]7O)[C@@H](O)[C@H](O)[C@H]6O)CC[C@]45C)[C@]3(C)CO)OC[C@H](O)[C@@H]2O)[C@H](O)[C@H](O)[C@H]1O`, the outcome was inactive.
Under `C=C(C)[C@@H]1CC[C@]2(C(=O)O[C@@H]3O[C@H](CO[C@@H]4O[C@H](CO)[C@@H](O[C@@H]5O[C@@H](C)[C@H](O)[C@@H](O)[C@H]5O)[C@H](O)[C@H]4O)[C@@H](O)[C@H](O)[C@H]3O)CC[C@]3(C)[C@H](CC[C@@H]4[C@@]5(C)CC[C@H](O[C@@H]6OC[C@H](O[C@@H]7O[C@H](CO)[C@@H](O[C@@H]8O[C@H](CO)[C@@H](O)[C@H](O)[C@H]8O)[C@H](O)[C@H]7O)[C@H](O)[C@H]6O[C@@H]6O[C@@H](C)[C@H](O)[C@@H](O)[C@H]6O)[C@@](C)(CO)[C@@H]5CC[C@]43C)[C@@H]12` stands “inactive”; under `C=C(C)[C@@H]1CC[C@]2(C(=O)O[C@@H]3O[C@H](CO[C@@H]4O[C@H](CO)[C@@H](O[C@@H]5O[C@@H](C)[C@H](O)[C@@H](O)[C@H]5O)[C@H](O)[C@H]4O)[C@@H](O)[C@H](O)[C@H]3O)CC[C@]3(C)[C@H](CC[C@@H]4[C@@]5(C)CC[C@H](O[C@@H]6OC[C@H](O)[C@H](O)[C@H]6O)[C@@](C)(CO)[C@@H]5CC[C@]43C)[C@@H]12`, “inactive”; under `C=C(C)[C@@H]1CC[C@]2(C(=O)O)CC[C@]3(C)[C@H](CC[C@@H]4[C@@]5(C)CC[C@H](O[C@@H]6OC[C@H](O)[C@H](O)[C@H]6O[C@@H]6O[C@@H](C)[C@H](O)[C@@H](O)[C@H]6O)[C@@](C)(CO)[C@@H]5CC[C@]43C)[C@@H]12`, “inactive”.
For `C=C(C)[C@@H]1CC[C@]2(C(=O)O[C@@H]3O[C@H](CO[C@@H]4O[C@H](CO)[C@@H](O[C@@H]5O[C@@H](C)[C@H](O)[C@@H](O)[C@H]5O)[C@H](O)[C@H]4O)[C@@H](O)[C@H](O)[C@H]3O)CC[C@]3(C)[C@H](CC[C@@H]4[C@@]5(C)CC[C@H](O[C@@H]6OC[C@H](O)[C@H](O)[C@H]6O[C@@H]6O[C@@H](C)[C@H](O)[C@@H](O)[C@H]6O)C(C)(C)[C@@H]5CC[C@]43C)[C@@H]12`, the result was inactive.
Next, `C=C(C)[C@@H]1CC[C@]2(C(=O)O[C@@H]3O[C@H](CO[C@@H]4O[C@H](CO)[C@@H](O[C@@H]5O[C@@H](C)[C@H](O)[C@@H](O)[C@H]5O)[C@H](O)[C@H]4O)[C@@H](O)[C@H](O)[C@H]3O)CC[C@]3(C)[C@H](CC[C@@H]4[C@@]5(C)CC[C@H](O[C@@H]6OC[C@H](O)[C@H](O)[C@H]6O[C@@H]6O[C@@H](C)[C@H](O)[C@@H](O)[C@H]6O)[C@@](C)(CO)[C@@H]5CC[C@]43C)[C@@H]12`: “inactive”; `C=C(C)[C@@H]1CC[C@]2(C(=O)O[C@@H]3O[C@H](CO[C@@H]4O[C@H](CO)[C@@H](O[C@@H]5O[C@@H](C)[C@H](O)[C@@H](O)[C@H]5O)[C@H](O)[C@H]4O)[C@@H](O)[C@H](O)[C@H]3O)CC[C@]3(C)[C@H](CC[C@@H]4[C@@]5(C)CC[C@H](O[C@@H]6OC[C@H](O[C@@H]7O[C@H](CO)[C@@H](O)[C@H](O)[C@H]7O)[C@H](O)[C@H]6O[C@@H]6O[C@@H](C)[C@H](O)[C@@H](O)[C@H]6O)[C@@](C)(CO)[C@@H]5CC[C@]43C)[C@@H]12`: “inactive”.

The record behind these values is ChEMBL document CHEMBL1156344, “New bisdesmosidic triterpene saponins from the roots of Pulsatilla chinensis” (J Nat Prod, 2001).
